Experimental data as given in patent US10413541B2, “Oxabicycloheptanes and oxabicycloheptenes for the treatment of depressive and stress disorders” (LIXTE BIOTECHNOLOGY, INC., priority 2015, dated 2019).
Like-named read-outs stand apart in the source and are kept apart here.

Assays:
[1] = tested on: C57Bl/6J mice; assay: Forced swim test after FsE; type: in vivo; conditions: for FsE-driven impairment in the forced swim test (depressive-like phenotype): LB100 ip 6-8 h after FsE, 7 days after FsE
Experimental: (§1) The inescapable shock procedure was previously described in Stamatakis and Stuber 2012. Briefly, we placed mice into standard mouse behavioral chambers (Imetronics) equipped with a metal grid floor. We let them to habituate at the new environment for 5 m. In a 20 m session animals received either 19 or 0 unpredictable foot shocks (1 mA, 500 ms) with an interstimulus interval of 30, 60 or 90 s. We anesthetized mice for patch-clamp electrophysiology 1 h, 24 h, 7 d, 14 d or 30 d after the session ended.
(§2) For LB treatment experiments, mice were injected with LB (1.5 mg/Kg i.p.) or saline 6-8 hours after the FsE. The effects of the treatment on the LHb excitability and GABAB-GIRKs currents as well as the behavioural assay were assessed at day 1 or 7. For both electrophysiology and behaviour once treated the animal were housed in groups of 4-6 and let undisturbed until the day of the test.
Forced swim test was conducted under normal light condition as previously described (Meye, Valentinova, Lecca et al 2015). Mice were placed in a cylinder of water (temperature 23-25° C.; 14 cm in diameter, 27 cm in height for mice) for six min. The depth of water was set to prevent animals from touching the bottom with their hind limbs. Animal behavior was videotracked from the top (Viewpoint, France). The latency to the first immobility event and the immobility time of each animal spent during the test was counted online by two independent observer blind of the animal treatments. Immobility was defined as floating or remaining motionless, which means absence of all movement except motions required to maintain the head above the water.

[2] = tested on: GIRK channels; assay: GTPγS-induced Ba2+-sensitive outward current (I-GTPγS) in LHb neurons of brain slices; type: cell-based, mice; conditions: LB100 in the bath; for Ba2+ sensitive I-GTPγS current: GTPγS 100 μM internal
Experimental: (§3) Animals were anesthetized with Ketamine/Xylazine (50 mg/10 mg Kg-1 i.p.; Sigma-Aldrich, France). The preparation of LHb-containing brain slices was done in bubbled ice-cold 95% O2/5% CO2-equilibrated solution containing (in mM): cholineCl 110; glucose 25; NaHCO3 25; MgCl2 7; ascorbic acid 11.6; Na+-pyruvate 3.1; KCl 2.5; NaH2PO4 1.25; CaCl2 0.5. Sagittal slices (250 μm) were stored at room temperature in 95% O2/5% CO2-equilibrated artificial cerebrospinal fluid (ACSF) containing (in mM): NaCl 124; NaHCO3 26.2; glucose 11; KCl 2.5; CaCl2 2.5; MgCl2 1.3; NaH2PO4 1. Recordings (flow rate of 2.5 ml/min) were made under an Olympus-BX51 microscope (Olympus, France) at 32° C. Currents were amplified, filtered at 5 kHz and digitized at 20 kHz. Access resistance was monitored by a step of −4 mV (0.1 Hz). Experiments were discarded if the access resistance increased more than 20%.
(§4) Cell-attached recordings in ACSF were performed in GΩ seal with a Vc=0 and Hc=0. Whole-cell voltage clamp recordings were achieved to measure GABAB-GIR currents in presence of Bicuculine (10 μM), NBQX (20 μM) and AP5 (50 μM). […] GABAB-GIRK currents were confirmed by antagonism with either 10 μM of CGP54626, a specific GABAB antagonist or 1 mM Ba^2, a selective inhibitor of inward rectifiers. For the GTPγS experiment, 100 μM of GTPγS was added to the internal solution in place of Na3GTP.

[3] = biological target: PP2A (Homo sapiens, UniProt P67775); conditions: cited from earlier work
PP2A, sequence (P67775 whole entry): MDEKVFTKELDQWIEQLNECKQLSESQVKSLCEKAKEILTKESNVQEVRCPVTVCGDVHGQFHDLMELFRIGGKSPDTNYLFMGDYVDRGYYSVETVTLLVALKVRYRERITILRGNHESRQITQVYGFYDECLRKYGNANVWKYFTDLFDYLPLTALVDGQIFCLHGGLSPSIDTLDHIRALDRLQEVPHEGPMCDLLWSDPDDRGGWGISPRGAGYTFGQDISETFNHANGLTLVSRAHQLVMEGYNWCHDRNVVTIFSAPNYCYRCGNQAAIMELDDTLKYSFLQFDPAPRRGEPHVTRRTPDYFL
PP2A, sequence (P30153 whole entry partner): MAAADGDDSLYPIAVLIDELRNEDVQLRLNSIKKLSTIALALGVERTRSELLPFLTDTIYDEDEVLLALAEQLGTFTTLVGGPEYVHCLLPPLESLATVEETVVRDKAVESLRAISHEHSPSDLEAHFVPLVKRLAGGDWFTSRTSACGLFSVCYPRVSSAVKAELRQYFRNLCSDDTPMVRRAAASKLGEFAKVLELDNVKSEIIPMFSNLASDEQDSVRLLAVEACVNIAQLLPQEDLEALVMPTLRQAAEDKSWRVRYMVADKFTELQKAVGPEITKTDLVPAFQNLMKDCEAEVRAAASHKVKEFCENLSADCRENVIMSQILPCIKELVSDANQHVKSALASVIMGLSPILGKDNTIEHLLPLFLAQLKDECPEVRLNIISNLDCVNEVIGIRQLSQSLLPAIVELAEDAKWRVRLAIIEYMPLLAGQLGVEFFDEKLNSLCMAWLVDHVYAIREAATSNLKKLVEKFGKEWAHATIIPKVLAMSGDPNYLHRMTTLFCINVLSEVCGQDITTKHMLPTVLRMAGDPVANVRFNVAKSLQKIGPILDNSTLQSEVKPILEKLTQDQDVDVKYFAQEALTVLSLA

[4] = tested on: LHb neurons; assay: In vivo LB100 treatment after FsE, LHb neuronal excitability (input-output curve) in slices; design: species or system mice; conditions: LB100 1.5 mg/kg ip 6-8 h after FsE
Experimental: as §1
(§5) For the Okadaic acid (OA) and the CaMKII inhibitor KN93 experiments, respectively 100 nM of OA or 10 μM of KN93 were added in the internal solution. For the PP2A inhibitor LB100 experiments, LB100 (0.1 μM) was applied in the bath. Miniature excitatory postsynaptic currents (mEPSCs) were recorded in voltage-clamp mode at −60 mV in presence of bicuculine (10 μM) and TTX (1 μM). Miniature inhibitory postsynaptic currents (mIPSCs) were recorded (−60 mV) in presence of NBQX (20 μM) and TTX (1 μM). EPSCs and IPSCs were evoked through an ACSF filled monopolar glass electrode placed 200 μm from the recording site in the stria medullaris. AMPA:NMDA ratios of evoked-EPSC were obtained by AMPA-EPSC −60 mV/NMDA-EPSCs at +40 mV. Rectification Index (RI) was computed by […]-60/AMPA-EPSC+40. For the experiments in which high-frequency stimulation trains were used to determine presynaptic release probability, QX314 (5 mM) was included in the internal solution to prevent the generation of sodium spikes. Current-clamp experiments, were performed by a series of current steps (negative to positive) injected to induce action potentials (5-10 pA injection current per step, 800 ms).
as §2

[5] = tested on: cancer cells; conditions: cited from earlier work; for Anti-cancer activity when used alone: mouse model systems (Lu et al. 2009a)
[6] = tested on: GABAB-GIRK currents in LHb neurons; assay: In vivo LB100 treatment after foot-shock exposure (FsE), I-baclofen recorded in LHb slices; design: species or system mice; conditions: for FsE-induced decrease in I-baclofen (CTRL vs FsE): 7 days after FsE; for FsE-induced I-baclofen attenuation (CTRL vs FsE): one day after FsE
Experimental: as §1, §4, §2

[7] = tested on: LHb neurons; assay: Current-clamp excitability (evoked action potentials, input-output curve) of LHb neurons in slices; type: cell-based, mice; conditions: LB100 0.1 μM in the bath
Experimental: as §3
The internal solution to measure GABAB-GIRK currents and neuronal excitability contained 140 mM potassium gluconate, 4 mM NaCl, 2 mM MgCl2, 1.1 mM EGTA, 5 mM HEPES, 2 mM Na2ATP, 5 mM sodium creatine phosphate, and 0.6 mM Na3GTP (pH 7.3), with KOH. When we measured the synaptic inhibitory or excitatory release the internal solution contained (in mM): CsCl 130; NaCl 4; MgCl2 2; EGTA 1.1; HEPES 5; Na2ATP 2; Na+-creatine-phosphate 5; Na3GTP 0.6, and spermine 0.1. The liquid junction potential was −3 mV. For cell-attached recordings the internal solution consisted in ACSF.
as §5

[8] = LB-100 ip 6-8 h after FsE, FST 7 days after FsE
[9] = LB100 1.5 mg/kg ip 6-8 h after FsE, 1.5 mg/kg
[10] = LB100 1.5 mg/kg ip 6-8 h after FsE, listed as LB-100, 1.5 mg/kg

**Q.** For `CN1CCN(C(=O)C2C(C(=O)O)[C@H]3CC[C@@H]2O3)CC1` (some centres unmarked) [LB100], which “FsE-driven impairment in the forced swim test (depressive-like phenotype)” value [1] is on record?
**A.** Its value is “sufficient to rescue the impairment”.

**Q.** What about the “FsE-driven impairment in the forced swim test (depressive-like phenotype)” value ([1]; listed as LB-100) of the same compound?
**A.** The value was “behavioral normalization”.

**Q.** And the “Latency to the first immobility, control vs FsE group” value [1, 8]?
**A.** Its value is “comparable”.

**Q.** What about the “Total immobility, control vs FsE group” value [1, 8] of the same compound?
**A.** Its value is “comparable”.

**Q.** And the “Ba2+ sensitive I-GTPγS in FsE animals vs CTRL” value [2]?
**A.** Its value is “restored”.

**Q.** And the “Ba2+ sensitive I-GTPγS current” value ([2]; CTRL mice)?
**A.** The value was 94.27±13.29 pA.

**Q.** What about the “Ba2+ sensitive I-GTPγS current” value ([2]; FsE mice) of the same compound?
**A.** Its value is 110.6±20.79 pA.

**Q.** And the “Ba2+ sensitive I-GTPγS in FsE animals vs CTRL” value ([2]; listed as LB-100)?
**A.** Its value is “comparable to the control group”.

**Q.** And the “Duration of inhibition of PP2A activity” value ([3]; 1.5 mg/Kg (Lu et al., 2009b))?
**A.** The value was “about 12 hours”.

**Q.** And the “Time of peak of PP2A-inhibiting activity” value ([3]; 1.5 mg/Kg (Lu et al., 2009b))?
**A.** The value was ~8 h.

**Q.** And the PP2A inhibition ([3]; in vitro in human cancer cells and in xenografts of human tumor cells in mice when given parenterally)?
**A.** The PP2A inhibition was “inhibitor of PP2A”.

**Q.** What about the “LHb neuronal excitability, input-output curve CTRL vs FsE” value (from here on “LHb neuronal excitability … vs FsE”) ([4]; 7 days after, 1.5 mg/kg) of the same compound?
**A.** The value was “able to abolish the increase in excitability”.

**Q.** What about the “LHb neuronal excitability … vs FsE” value ([4]; 7 days after, listed as LB-100, 1.5 mg/kg) of the same compound?
**A.** The value was “normalized”.

**Q.** And the “LHb neuronal excitability … vs FsE” value ([4]; one day after, 1.5 mg/kg)?
**A.** The value was “did not show any difference”.

**Q.** What about the “LHb neuronal excitability … vs FsE” value ([4]; one day after, listed as LB-100, 1.5 mg/kg) of the same compound?
**A.** The value was “normalized”.

**Q.** And the “Toxicity in combination with standard cytotoxic anti-cancer drugs” value ([5]; in vivo)?
**A.** Its value is “without observable increase in toxicity”.

**Q.** What about the “Anti-cancer activity when used alone” value [5] of the same compound?
**A.** The value was “has anti-cancer activity”.

**Q.** And the “Anti-cancer activity when used alone” value ([5]; listed as LB-100)?
**A.** The value was “inhibits the growth of cancer cells”.

**Q.** And the “Potentiation in vivo of anti-tumor activity of standard cytotoxic anti-cancer drugs” value ([5]; with temozolomide, doxorubicin, docetaxel)?
**A.** Its value is “significantly potentiates”.

**Q.** What about the I-baclofen current ([6]; LB100 1.5 mg/kg ip 6-8 h after FsE protocol, recorded one day after, CTRL mice) of the same compound?
**A.** The I-baclofen current was 93.88±18.37 pA.

**Q.** What about the “FsE-induced decrease in I-baclofen (CTRL vs FsE)” value [6, 9] of the same compound?
**A.** The value was “able to revert”.

**Q.** What about the “FsE-induced decrease in I-baclofen (CTRL vs FsE)” value [6, 10] of the same compound?
**A.** Its value is “comparable”.

**Q.** And the “FsE-induced I-baclofen attenuation (CTRL vs FsE)” value [6, 9]?
**A.** Its value is “not present”.

**Q.** What about the “FsE-induced I-baclofen attenuation (CTRL vs FsE)” value [6, 10] of the same compound?
**A.** The value was “comparable”.

**Q.** What about the I-baclofen current ([6]; LB100 1.5 mg/kg ip 6-8 h after FsE, recorded one day after, FsE mice) of the same compound?
**A.** Its I-baclofen current is 97.00±18.05 pA.

**Q.** What about the I-baclofen current ([6]; single injection of LB100 6-8 hours after the shock protocol, recorded 7 days later, CTRL mice) of the same compound?
**A.** Its I-baclofen current is 95.54±30.00 pA.

**Q.** What about the I-baclofen current ([6]; single injection of LB100 6-8 hours after the shock, recorded 7 days later, FsE mice) of the same compound?
**A.** Its I-baclofen current is 92.97±14.84 pA.

**Q.** What about the “FsE-induced hyperexcitability of LHb neurons (input-output curve, CTRL vs FsE)” value [7] of the same compound?
**A.** The value was “completely abolished”.

**Q.** And the “FsE-induced hyperexcitability of LHb neurons (input-output curve, CTRL vs FsE)” value ([7]; listed as LB-100)?
**A.** Its value is “comparable to control conditions”.
